Results from patent publication US20080107613A1, “Pharmaceutical composition comprising a macrolide t-cell immunomodulator and anti-photoaging agent” (priority 2004, published 2008).

Legend:
[1] = tested on: DNA damage induced by UV light in mouse skin (epidermal thymine dimers); conditions: hairless mice pretreated with 1% pimecrolimus cream or 0.1% tacrolimus ointment; measured one hour after 1 J/cm^2 UVB irradiation; cited from earlier work
[2] = tested on: UVB-induced apoptosis in mouse skin; conditions: hairless mice pretreated with 1% pimecrolimus cream or 0.1% tacrolimus ointment; UVB irradiation; versus untreated mice; cited from earlier work
[3] = tested on: pyrimidine/thymine dimers in DNA extracted from epidermis; assay: Thymine dimer levels in human epidermis after simulated solar radiation (immunoslot blot, chemoluminescence image analysis); assay type: in vivo; conditions: skin sites of subjects with or without atopic dermatitis pretreated with pimecrolimus, 1 hour post-irradiation
Method: Similar results are obtained with skin from subjects receiving pimecrolimus, either with or without skin disease (atopic dermatitis), exposed to simulated solar radiation, when DNA is extracted from epidermis biopsied 1 hour and 24 hours after irradiation, as measured by pyrimidine dimer visualization by immunoslot blot and quantification by chemoluminescence image analysis: at 1 hour post-irradiation thymine dimer levels are clearly lower as compared to untreated control, indicative of reduced dimer production in skin sites pretreated with pimecrolimus.

| Compound | decrease of amount of epidermal thymine dimers as compared to untreated mice [1] [%] | UVB-induced apoptosis [2] | thymine dimer levels as compared to untreated control [3] |
| --- | --- | --- | --- |
| C=CC[C@@H]1/C=C(\C)C[C@H](C)C[C@H](OC)[C@H]2O[C@@](O)(C(=O)C(=O)N3CCCC[C@H]3C(=O)O[C@H](/C(C)=C/[C@@H]3CC[C@@H](O)[C@H](OC)C3)[C@H](C)[C@@H](O)CC1=O)[C@H](C)C[C@@H]2OC [tacrolimus] | 84 | less pronounced |  |
| {[1E-(1R,3R,4S)]1R,9S,12S, 13R,14S,17R,18E,21S,23S,24R,25S,27R}-12-[2-(4-chloro-3-methoxycyclohexyl)-1-methylvinyl]-17-ethyl-1,14-dihydroxy-23,25-dimethoxy-13,19,21,27-tetramethyl-11,28,dioxa-4-azatricyclo [22.3.1.0(4,9)]octacos-18-ene-2,3,10,16-tetraone [pimecrolimus] | 89 | less pronounced | clearly lower |
